Test results from patent US20250205344A1, “2,4-DIOXOTETRAHYDROPYRIMIDINYL DERATIVES AS DEGRONS IN PROTACS” (GLAXOSMITHKLINE INTELLECTUAL PROPERTY DEVELOPMENT LIMITED, priority 2022, published 2025).
Counter-ions that a name gives are not always drawn.

Key:
[1] = molecular target: T1, Full length Cereblon protein (6His tev Cereblon/6His tev DDB1ΔBPB) (Homo sapiens, UniProt Q96SW2); experiment: Cereblon Binding Assay (TR-FRET); conditions: 5 nM protein, 50 nM Alexa647-lenalidomide ligand, read-out: Mean pIC50 (converted)
T1 construct: Full length Cereblon protein (6His tev Cereblon/6His tev DDB1ΔBPB) was expressed and purified from E. coli; made in house; host or cells: E. coli
Experimental: Full length Cereblon protein (6His tev Cereblon/6His tev DDB1ΔBPB) was expressed and purified from E. coli to monitor compound binding. […] A Thermo Scientific Multidrop Combi was used to dispense 5 μL of 10 nM protein in assay buffer of 50 mM
HEPES, 150 mM NaCl, 5% glycerol, 1 mM DTT and 1 mM CHAPS, pH 7.4, in the presence of 100 nM fluorescent ligand (Final assay concentrations of 5 nM protein and 50 nM ligand). After equilibrating for 15 min in the dark at room temperature a 5 μL addition was made of 2 nM europium chelate labelled anti-6His antibody (Perkin Elmer, W1024, AD0111) in assay buffer (1 nM FAC). […] TR-FRET ratio data was normalised to high (DMSO) and low (reaction in the absence of protein) controls and pIC50 values determined for each of the compounds tested by fitting the fluorescence ratio data to a four parameter model:
[formula] • where ‘a’ is the minimum, ‘b’ is the maximum, ‘c’ is the pIC50 and ‘d’ is the Hill slope.

Androgen Receptor = molecular target: T2, Androgen Receptor (Homo sapiens, UniProt P10275, T878A); experiment: Androgen Receptor Degradation Assay (Nano-Glo HiBiT); format: cell-based; conditions: LNCaP, 18 h, HiBiT-tagged AR in human LnCaP cells, read-out: mean asymptote max
T2 construct: the AR gene was modified, using CRISPR/Cas9 editing, so the expressed AR protein included an 11 amino acid HiBiT tag; endogenous in cells; host or cells: clonal LnCaP-derived line, AR gene edited by CRISPR/Cas9
How it was run: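 LnCaP cells with CRISPR-knocked-in N-terminal HiBiT-tagged AR (10,000/well) treated 18 h at 37 °C with PROTACs over 11 threefold concentrations; lytic HiBiT luminescence normalised to DMSO (0%) and cell-free (100%) controls. Relative DC50 = 4-parameter fit inflection; absolute DC50 = 50% degradation interpolation; Dmax = maximum observed degradation.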

[2] = molecular target: T3, Androgen Receptor dual T878A/L702H mutant protein (Homo sapiens, UniProt P10275, L702H/T878A); experiment: Dual Mutant (T878A/L702H) Androgen Receptor Degradation Assay (HTRF); format: cell-based; conditions: MDA-PCa-2b, 18 h, human MDA PCa 2b cells, read-out: mean asymptote max
T3 construct: Androgen Receptor dual T878A/L702H mutant protein in human MDA PCa 2b (ATCC, #CRL-2422) cells; host or cells: MDA PCa 2b
T3 sequence (P10275 1-920 L702H/T878A): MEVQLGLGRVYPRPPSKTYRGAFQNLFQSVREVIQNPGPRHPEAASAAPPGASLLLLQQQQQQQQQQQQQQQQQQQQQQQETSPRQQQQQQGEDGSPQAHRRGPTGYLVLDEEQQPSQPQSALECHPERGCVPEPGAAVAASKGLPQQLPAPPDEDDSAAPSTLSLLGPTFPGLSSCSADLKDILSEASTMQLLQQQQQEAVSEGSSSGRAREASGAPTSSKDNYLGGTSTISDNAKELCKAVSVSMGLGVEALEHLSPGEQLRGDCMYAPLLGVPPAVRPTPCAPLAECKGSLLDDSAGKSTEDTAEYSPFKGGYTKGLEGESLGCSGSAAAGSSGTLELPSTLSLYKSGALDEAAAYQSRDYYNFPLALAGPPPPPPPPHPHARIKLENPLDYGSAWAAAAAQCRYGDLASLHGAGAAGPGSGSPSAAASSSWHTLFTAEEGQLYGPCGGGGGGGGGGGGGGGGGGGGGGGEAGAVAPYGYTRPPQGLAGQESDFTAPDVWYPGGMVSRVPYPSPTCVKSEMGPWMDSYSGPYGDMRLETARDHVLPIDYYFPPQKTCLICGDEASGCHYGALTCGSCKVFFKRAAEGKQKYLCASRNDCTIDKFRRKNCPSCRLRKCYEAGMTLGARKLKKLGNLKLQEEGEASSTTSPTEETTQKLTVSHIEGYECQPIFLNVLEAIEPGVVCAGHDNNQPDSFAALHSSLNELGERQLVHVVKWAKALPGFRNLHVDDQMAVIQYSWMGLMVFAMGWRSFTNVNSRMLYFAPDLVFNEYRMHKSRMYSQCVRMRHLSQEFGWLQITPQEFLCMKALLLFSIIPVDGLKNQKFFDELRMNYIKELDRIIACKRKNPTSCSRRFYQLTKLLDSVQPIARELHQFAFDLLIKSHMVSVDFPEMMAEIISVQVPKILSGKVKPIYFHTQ
Experimental: Degradation of Androgen Receptor dual T878A/L702H mutant protein in human MDA PCa 2b (ATCC, #CRL-2422) cells treated with PROTACs was quantified using the HTRF Human Androgen Receptor Detection Kit (PerkinElmer, #64ANDRPEH) in 384 well assay plate format. 10 mM DMSO(Sigma-Aldrich, #472301) stock solutions of PROTACs were prepared and diluted across an 11 concentration, 3-fold increment range, and 25 nL dispensed into a white opaque bottomed 384 well assay plate (Thermofisher, #164610) using an acoustic ECHO dispenser (Labcyte). Cells were cultured in growth medium (BRFF-HPC-1 (Athena ES, #0403) supplemented with 20% FBS (Gibco, #10099-141), penicillin 50 U/mL and streptomycin 50 ug/mL (Gibco, #15140-122)) in collagen I or poly-D-lysine coated T175 flasks (Corning, #356487 or #356539, respectively). For the assay, cells were harvested from the flask, centrifuged at 200 g for 5 min and then resuspended in the growth medium. 25 μl of cell suspension containing 10,000 cells was dispensed into each well of the assay plate containing the test compounds, which was then incubated for 18 h at 37° C./5% CO2. Control wells were included on each assay plate, with assay medium without cells being the no AR remaining 100% effect control, and cells treated with DMSO vehicle only, without PROTAC, the 0% effect control. After 18 h incubation 8 μl of supplemented lysis buffer from HTRF kit was added to each well and the plate shaken at 500 rpm for 1 h at room temperature. 8 μl of antibody mix in Detection buffer from HTRF kit was added to each well and the plate was incubated for 2 h in dark at room temperature. The fluorescence was measured at both 620 nm and 665 nm using an excitation wavelength of 337 nm with a PHERAstar microplate reader (BMG Labtech) and the % AR protein remaining in each well was calculated by normalising the HTRF ratio (665 nm signal/620 nm signal) value to the control wells mentioned above. Parameters corresponding to the potency and efficacy estimates of the PROTACs were obtained from these normalised values using curve fitting software (IDBS ActivityBase). These included the DC50 and the Dmax estimates. Two versions of the DC50, called relative DC50 and absolute DC50, were typically generated. These are the inflection point of a fitted 4 parameter sigmoidal response curve and the interpolated concentration of PROTAC corresponding to 50% of the protein being degraded, respectively. The Dmax parameter was the maximum experimentally observed degradation and the asymptote max parameter the fitted response curve asymptote maximum.

T2 sequence (P10275 whole entry T878A): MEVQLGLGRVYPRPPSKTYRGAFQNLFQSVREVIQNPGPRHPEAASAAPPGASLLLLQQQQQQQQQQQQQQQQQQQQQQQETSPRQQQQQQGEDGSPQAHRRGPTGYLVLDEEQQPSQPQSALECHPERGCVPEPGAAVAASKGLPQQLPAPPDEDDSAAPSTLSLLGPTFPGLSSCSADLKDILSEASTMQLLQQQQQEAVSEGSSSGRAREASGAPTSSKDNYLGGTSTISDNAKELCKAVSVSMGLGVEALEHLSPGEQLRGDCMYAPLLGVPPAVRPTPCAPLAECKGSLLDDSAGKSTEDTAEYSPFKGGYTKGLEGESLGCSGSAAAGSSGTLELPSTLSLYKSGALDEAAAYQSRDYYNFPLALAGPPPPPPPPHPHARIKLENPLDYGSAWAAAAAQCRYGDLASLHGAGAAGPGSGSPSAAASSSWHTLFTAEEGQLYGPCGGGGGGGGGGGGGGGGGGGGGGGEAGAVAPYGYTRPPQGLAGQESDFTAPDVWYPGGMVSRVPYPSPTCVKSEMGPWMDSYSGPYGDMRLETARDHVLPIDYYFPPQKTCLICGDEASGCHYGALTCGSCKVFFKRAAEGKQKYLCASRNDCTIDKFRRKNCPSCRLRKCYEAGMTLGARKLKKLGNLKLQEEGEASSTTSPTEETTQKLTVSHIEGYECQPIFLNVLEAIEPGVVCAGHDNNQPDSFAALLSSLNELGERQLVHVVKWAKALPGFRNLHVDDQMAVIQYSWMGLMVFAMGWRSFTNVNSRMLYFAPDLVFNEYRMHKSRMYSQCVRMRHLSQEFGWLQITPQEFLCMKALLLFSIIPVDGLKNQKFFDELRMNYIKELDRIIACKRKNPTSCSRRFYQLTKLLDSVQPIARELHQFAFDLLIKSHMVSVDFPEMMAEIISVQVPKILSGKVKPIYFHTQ
T2 sequence (Q96SW2 whole entry partner): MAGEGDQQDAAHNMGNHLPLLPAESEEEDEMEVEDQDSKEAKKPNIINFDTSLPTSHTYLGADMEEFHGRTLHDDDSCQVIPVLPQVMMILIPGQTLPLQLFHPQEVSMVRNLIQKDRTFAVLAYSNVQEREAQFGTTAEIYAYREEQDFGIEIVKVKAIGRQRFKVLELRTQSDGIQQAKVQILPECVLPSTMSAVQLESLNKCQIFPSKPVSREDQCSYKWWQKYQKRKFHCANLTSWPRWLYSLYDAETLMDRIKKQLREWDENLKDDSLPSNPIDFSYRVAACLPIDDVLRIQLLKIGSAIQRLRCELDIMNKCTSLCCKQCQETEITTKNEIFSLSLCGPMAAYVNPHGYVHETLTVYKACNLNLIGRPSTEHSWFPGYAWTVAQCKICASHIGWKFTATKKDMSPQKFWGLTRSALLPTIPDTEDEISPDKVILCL
T2 sequence (Q16531 whole entry partner): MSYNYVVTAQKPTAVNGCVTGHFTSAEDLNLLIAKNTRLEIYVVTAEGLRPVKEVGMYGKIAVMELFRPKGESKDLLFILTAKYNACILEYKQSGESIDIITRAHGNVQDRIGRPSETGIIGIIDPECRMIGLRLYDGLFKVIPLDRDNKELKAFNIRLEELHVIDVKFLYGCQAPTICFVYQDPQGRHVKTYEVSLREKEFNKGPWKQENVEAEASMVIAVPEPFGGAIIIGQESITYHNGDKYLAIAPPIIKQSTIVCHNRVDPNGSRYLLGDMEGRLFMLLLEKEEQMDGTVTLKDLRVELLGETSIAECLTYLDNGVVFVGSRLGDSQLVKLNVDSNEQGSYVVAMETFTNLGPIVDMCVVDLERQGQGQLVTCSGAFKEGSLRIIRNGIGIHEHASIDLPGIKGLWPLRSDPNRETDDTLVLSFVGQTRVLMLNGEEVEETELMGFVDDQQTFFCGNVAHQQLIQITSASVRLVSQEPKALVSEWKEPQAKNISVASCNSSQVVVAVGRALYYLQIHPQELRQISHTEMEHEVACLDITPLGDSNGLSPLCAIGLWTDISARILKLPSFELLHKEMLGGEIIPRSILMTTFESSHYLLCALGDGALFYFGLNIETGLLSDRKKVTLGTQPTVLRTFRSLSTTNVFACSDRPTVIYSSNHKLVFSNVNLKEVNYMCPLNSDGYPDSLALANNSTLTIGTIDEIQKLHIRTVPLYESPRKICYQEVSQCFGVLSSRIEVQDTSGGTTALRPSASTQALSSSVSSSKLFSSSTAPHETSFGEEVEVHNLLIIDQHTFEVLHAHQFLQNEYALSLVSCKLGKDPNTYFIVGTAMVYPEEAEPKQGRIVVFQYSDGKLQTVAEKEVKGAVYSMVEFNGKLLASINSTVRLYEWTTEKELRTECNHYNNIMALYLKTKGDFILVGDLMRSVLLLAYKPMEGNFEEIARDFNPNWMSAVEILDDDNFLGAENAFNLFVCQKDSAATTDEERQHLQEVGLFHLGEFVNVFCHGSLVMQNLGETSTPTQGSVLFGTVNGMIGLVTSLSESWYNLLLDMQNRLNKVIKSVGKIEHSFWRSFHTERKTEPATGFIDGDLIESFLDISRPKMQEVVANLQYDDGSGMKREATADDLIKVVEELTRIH
T1 sequence (Q96SW2 whole entry, stated change not applied): as the sequence (Q96SW2 whole entry partner) above

Compound | IC50 [1] [nM] | Dmax (Androgen Receptor) [%] | Dmax [2] [%]
N#Cc1ccc(O[C@H]2CC[C@H](NC(=O)c3ccc(N4CCCC(CN5CCC(n6ccc7c(N8CCC(=O)NC8=O)cccc76)CC5)C4)nn3)CC2)cc1Cl (mixture of isomers) [EAR73, rac-N-((1r,4r)-4-(3-Chloro-4-cyanophenoxy)cyclohexyl)-6-(3-((4-(4-(2,4-dioxotetrahydropyrimidin-1(2H)-yl)-1H-indol-1-yl)piperidin-1-yl)methyl)piperidin-1-yl)pyridazine-3-carboxamide] | ≤ 1000 | ≥ 50 | –
N#Cc1ccc(O[C@H]2CC[C@H](NC(=O)c3ccc(N4CCC(CN5CCC(n6ccc7c(N8CCC(=O)NC8=O)cccc76)C(F)(F)C5)CC4)nn3)CC2)cc1Cl (single isomer, unassigned) [EAR162, N-((1r,4r)-4-(3-Chloro-4-cyanophenoxy)cyclohexyl)-6-(4-((4-(4-(2,4-dioxotetrahydropyrimidin-1(2H)-yl)-1H-indol-1-yl)-3,3-difluoropiperidin-1-yl)methyl)piperidin-1-yl)pyridazine-3-carboxamide] | ≤ 1000 | ≥ 50 | –
CC1(C)[C@H](NC(=O)c2cnc(N3CCC(CN4CCC(n5ccc6c(N7CCC(=O)NC7=O)cncc65)CC4)CC3)cn2)C(C)(C)[C@H]1Oc1ccc(C#N)c(Cl)c1 [AR14, N-((1r,3r)-3-(3-Chloro-4-cyanophenoxy)-2,2,4,4-tetramethylcyclobutyl)-5-(4-((4-(4-(2,4-dioxotetrahydropyrimidin-1(2H)-yl)-1H-pyrrolo[2,3-c]pyridin-1-yl)piperidin-1-yl)methyl)piperidin-1-yl)pyrazine-2-carboxamide] | – | ≥ 50 | ≥ 55
CC1(C)[C@H](NC(=O)c2ccc(N3CCC(CN4CCC(n5ncc6c(N7CCC(=O)NC7=O)cccc65)CC4)CC3)nc2)C(C)(C)[C@H]1Oc1ccc(C#N)c(Cl)c1 [AR41, N-((1r,3r)-3-(3-Chloro-4-cyanophenoxy)-2,2,4,4-tetramethylcyclobutyl)-6-(4-((4-(4-(2,4-dioxotetrahydropyrimidin-1(2H)-yl)-1H-indazol-1-yl)piperidin-1-yl)methyl)piperidin-1-yl)nicotinamide hydrochloride] | – | ≥ 50 | ≥ 55
CC1(C)[C@H](NC(=O)c2cnc(N3CCC(C(=O)N4CCC(n5ccc6c(N7CCC(=O)NC7=O)cccc65)CC4)CC3)nc2)C(C)(C)[C@H]1Oc1ccc(C#N)c(Cl)c1 [AR67, N-((1r,3r)-3-(3-Chloro-4-cyanophenoxy)-2,2,4,4-tetramethylcyclobutyl)-2-(4-(4-(4-(2,4-dioxotetrahydropyrimidin-1(2H)-yl)-1H-indol-1-yl)piperidine-1-carbonyl)piperidin-1-yl)pyrimidine-5-carboxamide] | – | ≥ 50 | ≥ 55
CC1(C)[C@H](NC(=O)c2ccc(N3CCC(CN4CCC(n5ncc6c(N7CCC(=O)NC7=O)cccc65)CC4)CC3)nn2)C(C)(C)[C@H]1Oc1ccc(C#N)c2ncccc12 [AR246, N-((1r,3r)-3-((8-Cyanoquinolin-5-yl)oxy)-2,2,4,4-tetramethylcyclobutyl)-6-(4-((4-(4-(2,4-dioxotetrahydropyrimidin-1(2H)-yl)-1H-indazol-1-yl)piperidin-1-yl)methyl)piperidin-1-yl)pyridazine-3-carboxamide] | – | ≥ 50 | ≥ 55
CC1(C)[C@H](NC(=O)c2ccc(N3CCC(CN4CCC(n5ccc6c(N7CCC(=O)NC7=O)ncnc65)CC4)CC3)nn2)C(C)(C)[C@H]1Oc1ccc(C#N)c(Cl)c1 [AR247, N-((1r,3r)-3-(3-Chloro-4-cyanophenoxy)-2,2,4,4-tetramethylcyclobutyl)-6-(4-((4-(4-(2,4-dioxotetrahydropyrimidin-1(2H)-yl)-7H-pyrrolo[2,3-d]pyrimidin-7-yl)piperidin-1-yl)methyl)piperidin-1-yl)pyridazine-3-carboxamide] | – | ≥ 50 | ≥ 55
CC1(C)[C@H](NC(=O)c2ccc(N3CCC(CN4CCC(n5ncc6c(N7CCC(=O)NC7=O)cccc65)CC4)CC3)nc2)C(C)(C)[C@H]1Oc1ccc(C#N)c2ncccc12 [AR261, N-((1r,3r)-3-((8-Cyanoquinolin-5-yl)oxy)-2,2,4,4-tetramethylcyclobutyl)-6-(4-((4-(4-(2,4-dioxotetrahydropyrimidin-1(2H)-yl)-1H-indazol-1-yl)piperidin-1-yl)methyl)piperidin-1-yl)nicotinamide hydrochloride] | – | – | ≥ 55
CC1(C)[C@H](NC(=O)c2cnc(N3CCC(CN4CCC(n5ccc6c(N7CCC(=O)NC7=O)cncc65)CC4)CC3)nc2)C(C)(C)[C@H]1Oc1ccc(C#N)c(Cl)c1 [EAR18, N-((1r,3r)-3-(3-Chloro-4-cyanophenoxy)-2,2,4,4-tetramethylcyclobutyl)-2-(4-((4-(4-(2,4-dioxotetrahydropyrimidin-1(2H)-yl)-1H-pyrrolo[2,3-c]pyridin-1-yl)piperidin-1-yl)methyl)piperidin-1-yl)pyrimidine-5-carboxamide] | – | ≥ 50 | ≥ 55
CC1(C)[C@H](NC(=O)c2ccc(N3CCC(CN4CCC(n5ncc6c(N7CCC(=O)NC7=O)cccc65)CC4)CC3)nn2)C(C)(C)[C@H]1Oc1cnc(C#N)c(Cl)c1 [EAR249, N-((1r,3r)-3-((5-Chloro-6-cyanopyridin-3-yl)oxy)-2,2,4,4-tetramethylcyclobutyl)-6-(4-((4-(4-(2,4-dioxotetrahydropyrimidin-1(2H)-yl)-1H-indazol-1-yl)piperidin-1-yl)methyl)piperidin-1-yl)pyridazine-3-carboxamide hydrochloride] | ≤ 1000 | ≥ 50 | –
